{
  "source": "patent US9534008B2",
  "about": "“Small molecule compounds that control plant- and insect-pathogenic nematodes” (California Institute of Technology, priority 2011, dated 2017)",
  "key": {"[1]": {"test_system": "C. elegans", "assay": "Ascaroside function (Table 12), C. elegans", "type": "in vivo, Caenorhabditis elegans", "parameters": "key to Attract Females/Herm. / Promote Dauer Formation / Attract Males: A very strong result of affecting nematode behavior is designated in the table as “strong.”", "summary_of_the_method": "(§1)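 Scoring is qualitative: each ascaroside or ascaroside blend applied to the worms receives a behavioral-effect grade. \"Strong\" indicates a very strong influence on nematode behavior.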"}, "[2]": {"test_system": "Panagrellus redivivus", "assay": "Ascaroside function (Table 12), Panagrellus redivivus", "type": "in vivo", "summary_of_the_method": "as §1"}, "[3]": {"test_system": "P. redivivus females", "assay": "Retention assay, P. redivivus females", "settings": "in vivo", "protocol": "OP50 E. coli was grown on a standard 5 cm agar plate (made with standard Nematode Growth Medium). The bacterial lawn was 16 mm in diameter and was grown overnight at 20° C. before being used in trials. Two 4 mm spots (0.6 μL) were placed on opposite sides of the bacterial lawn (using a transparent template to guide spot placement), and several minutes elapsed for the liquid to settle in before placing nematodes down on the assay. Recording began immediately upon worm placement. […]\nNematodes were isolated by gender at the L4 stage the day before being used in trials as developed adults. […] Trials were recorded for 20 minutes, and frames were collected for analysis at 1 frame per second. […]\nA video camera attached to the microscope produced a digital video stream, which was then analyzed. The ratio of the time the average worm spent in each region of interest was calculated for every trial. […] Thus worm pixels were counted instead of whole worms, allowing fractions of a worm in the region of interest to be taken into account. It also eliminated the need for a shape-based worm identification algorithm, and allowed each frame to be analyzed independently. […] Thus, the ratio of worm-pixels to all pixels inside the region of interest can be calculated to produce the worm-occupancy ratio. […]"}, "[4]": {"test_system": "C. elegans hermaphrodites and males", "assay": "Spot attraction assay", "type": "in vivo", "protocol": "The spot attraction assays were conducted according to a previously reported method (Pungaliya et al., PNAS 106:7708-13 (2009); Srinivasan et al., Nature 454:1115-18 (2008), which are hereby incorporated by reference in their entirety). For both C. elegans hermaphrodites and males, 50-60 worms were harvested daily at the fourth larval stage (L4) and stored segregatedly by sex at 20° C. overnight, to be used as young adults the following day. For the competition experiments, two conditions were used: 120 nM ascr#3 and 10 nM icas#3 (Condition 1), or 12 μM ascr#3 and 1 μM icas#3 (Condition 2) in water containing 10% ethanol. Aliquots were stored at −20° C. in 20 μL tubes. 10% ethanol in water was used as control.\nAttraction assays with hbas#3 were conducted as previously reported (Srinivasan et al., Nature 454:1115-18 (2008); Pungaliya et al., Proc. Natl. Acad. Sci. U.S.A. 106:7708-13 (2009), which are hereby incorporated by reference in their entirety). For the attraction assays, 50-60 hermaphrodite worms were harvested daily at the early fourth larval stage (L4) and stored at 20° C. overnight to be used as young adults the following day. Hbas#3 was dissolved in water containing 10% ethanol. Aliquots were stored at −20° C. in 20 μL tubes. 10% ethanol in water was used as control."}, "[5]": {"test_system": "C. elegans", "settings": "in vivo; cited from earlier work"}, "[6]": {"test_system": "C. elegans", "settings": "in vivo; cited from earlier work", "remark": "listed apart in the source"}, "[7]": {"test_system": "S. feltiae", "assay": "Ascaroside function (Table 12), S. feltiae", "type": "in vivo, Steinernema feltiae", "protocol": "Various ascarosides and ascaroside blends were administered to various nematodes described below (Table 12). […] A very strong result of affecting nematode behavior is designated in the table as “strong.”"}, "[8]": {"test_system": "C. elegans", "assay": "Aggregation assay", "type": "in vivo", "protocol": "Aggregation behavior of worms was measured using assays reported in de Bono & Bargmann, Cell 94:679-89 (1998), which is hereby incorporated by reference in its entirety. Aggregation assays were conducted on standard NGM plates. Plates containing indole ascarosides were made by adding the indole ascaroside stock solution to the NGM media before they were poured onto the plates. These plates were dried at room temperature for 2 to 3 days. Control plates were treated similarly, except that ethanol solutions instead of icas solutions were added to the plates, corresponding to the amount of ethanol introduced via the icas solutions. Final ethanol concentrations of the plates were below 0.1% for all conditions. After drying, both control plates and plates containing indole ascarosides were seeded with 150 μl of an overnight culture of E. coli OP50 using a micropipette, and were allowed to dry for 2 days at room temperature. For “low worm density” experiments, 20 worms were placed onto the lawn and left at 20° C. for 3 hours. For “high worm density” experiments, approximately 120 worms were placed onto the bacterial lawn and left at 20° C. for 3 hours. Aggregation behavior was quantified as the number of animals that were in touch with two or more animals at greater than 50% of their body length."}},
  "note": "Entries after “also recorded” stand apart in the source; their conditions may differ.",
  "data": [
    {"smiles": "C[C@H](CCC(=O)O)O[C@@H]1O[C@@H](C)[C@H](OC(=O)c2c[nH]c3ccccc23)C[C@H]1O", "note": "[icas#9]", "values": [
      {"measurement": "Attract Females/Herm.", "setting": "[1]", "result": "([strong])"},
      {"measurement": "Promote Dauer Formation", "setting": "[1]", "result": "icas#9"},
      {"measurement": "Repel Females/Herm.", "setting": "[2]", "result": "icas#9"},
      {"measurement": "response of P. redivivus females", "setting": "[3]", "result": "repealed"},
      {"measurement": "attraction of both C. elegans sexes", "setting": "[4]; high concentrations, 1 μmol, N2 hermaphrodites and him-5 males", "result": "attractive; also recorded: attracted"},
      {"measurement": "attraction of males", "setting": "[4]; low concentrations, males", "result": "but not males"},
      {"measurement": "dauer-inducing activity", "setting": "[5]", "result": "moderate; also recorded: promote dauer entry"},
      {"measurement": "shape of dauer response curve", "setting": "[5]", "result": "bell-shaped"},
      {"measurement": "aggregation in C. elegans", "setting": "[6]", "result": "aggregating stimulant"},
      {"measurement": "Dispersal (of dauer larvae, infectious juveniles)", "setting": "[7]", "result": "icas#9"},
      {"measurement": "active concentration window (hermaphrodite attraction and aggregation)", "setting": "[8]; in vivo", "result": "femtomolar to picomolar; also recorded: fM-pM"},
      {"measurement": "aggregation of solitary and social hermaphrodites", "setting": "[8]; low worm density (20 worms per 5 cm plate)", "result": "increased aggregation"}
    ]}
  ]
}
